# What was measured:
# [1] = system: ERK; experiment: Western blot, ERK tyrosine phosphorylation; type: cell-based, human; conditions: 100 nM NTS; for Inhibition of NTS-induced ERK tyrosine phosphorylation (in words): 5 μM DPI or 5 mM Tiron, NCI-H838, Fig. 5
# [2] = system: HER2; experiment: Western blot, HER2 tyrosine phosphorylation; type: cell-based, human; conditions: 100 nM NTS; for Inhibition of NTS-induced HER2 tyrosine phosphorylation (in words): 5 μM DPI or 5 mM Tiron, NCI-H838, Fig. 5
# [3] = system: EGFR; experiment: Western blot, EGFR tyrosine phosphorylation; type: cell-based, human; conditions: 100 nM NTS; for Inhibition of NTS-induced EGFR tyrosine phosphorylation (in words): 5 μM DPI or 5 mM Tiron, NCI-H838, Fig. 5; for Effect on NTS-induced EGFR tyrosine phosphorylation (in words): Fig. 6
# [4] = system: Nox and Duox enzymes; conditions: ref Moody et al., 2018; Doroshow et al., 2012; cited from earlier work
# [5] = system: c-Src, β-catenin, PYK-2 and the EGFR; conditions: A549 cells; ref Moody et al., 2014; cited from earlier work
# [6] = target: neurotensin receptor 1 (Homo sapiens, UniProt P30989); experiment: Receptor binding, inhibition of specific
# Sequence of neurotensin receptor 1 (Homo sapiens, UniProt P30989) (P30989 whole entry): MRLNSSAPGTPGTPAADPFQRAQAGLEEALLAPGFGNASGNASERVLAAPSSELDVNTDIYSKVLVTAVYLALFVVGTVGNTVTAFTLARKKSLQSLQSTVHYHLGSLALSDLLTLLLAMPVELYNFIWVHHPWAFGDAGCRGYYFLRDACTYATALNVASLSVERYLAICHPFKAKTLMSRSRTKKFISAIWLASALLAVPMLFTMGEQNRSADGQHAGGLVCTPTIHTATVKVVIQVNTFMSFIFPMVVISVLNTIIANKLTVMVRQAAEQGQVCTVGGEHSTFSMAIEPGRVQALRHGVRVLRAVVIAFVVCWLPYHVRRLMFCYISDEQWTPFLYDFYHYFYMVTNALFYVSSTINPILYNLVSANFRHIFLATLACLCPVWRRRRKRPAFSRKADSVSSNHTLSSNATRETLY
# [7] = system: NCI-H838 cells; experiment: MTT proliferation assay, NCI-H838 cells; conditions: lapatinib combined with SR48692, Fig. 7
# [8] = system: tubulin; experiment: Western blot, total tubulin; type: cell-based, human; conditions: lapatinib; control; Fig. 6
# [9] = system: PC-3M prostate cancer cells; conditions: ref Valerie et al., 2011; cited from earlier work
# [10] = system: EGFR; conditions: NSCLC cell lines; ref Moody et al., 2014; cited from earlier work
# [11] = system: neurotensin receptor 1; conditions: colorectal cancer; ref Wang et al., 2010; cited from earlier work
structure (smiles),measurement,setting,value
"c1ccc2c(c1)[I+]c1ccccc1-2 [DPI, diphenylene iodonium]",Inhibition of NTS-induced ERK tyrosine phosphorylation (in words),[1],significantly inhibited
same,Inhibition of NTS-induced HER2 tyrosine phosphorylation (in words),[2],significantly inhibited
same,Inhibition of NTS-induced EGFR tyrosine phosphorylation (in words),[3],significantly inhibited
same,Inhibition of Nox and Duox enzymes (in words),[4],inhibits all Nox and Duox enzymes
CNC(=O)[C@H](Cc1c[nH]c2ccccc12)NC(=O)[C@@H](CC(=O)NO)CC(C)C [GM6001],Effect on neurotensin-induced EGFR tyrosine phosphorylation (in words),[5],blocked
COc1cc2ncnc(Nc3ccc(F)c(Cl)c3)c2cc1OCCCN1CCOCC1 [Gefitinib],IC50,[6],> 2000 nM
CS(=O)(=O)CCNCc1ccc(-c2ccc3ncnc(Nc4ccc(OCc5cccc(F)c5)c(Cl)c4)c3c2)o1 [Lapatinib],Effect on NTS-induced ERK tyrosine phosphorylation (in words),"[1]; 1 or 10 μM lapatinib, Fig. 6",significantly reduced
same,Effect on NTS-induced HER2 tyrosine phosphorylation (in words),"[2]; 1 or 10 μM lapatinib, Fig. 6",significantly reduced
same,Shift of SR48692 dose-response curve (in words),[7],shifted the SR48692 dose-response curve to the left
same,Effect on total tubulin (in words),[8],no effect
same,Effect on NTS-induced EGFR tyrosine phosphorylation (in words),[3]; 0.1 μM lapatinib,impaired
same,Effect on NTS-induced EGFR tyrosine phosphorylation (in words),[3]; 1 or 10 μM lapatinib,significantly reduced
same,IC50,[6],> 2000 nM
C[C@@H]1CN([C@H]2CC[C@](C#N)(c3ccc(F)cc3)CC2)CC[C@]1(C(=O)O)c1ccccc1 [Levocabastine],IC50,[6],> 2000 nM
CC(C)(C)n1nc(-c2ccc(Cl)cc2)c2c(N)ncnc21 [PP2],Effect on neurotensin-induced EGFR tyrosine phosphorylation (in words),[5],blocked
COc1cccc(OC)c1-c1cc(C(=O)NC2(C(=O)O)C3CC4CC(C3)CC2C4)nn1-c1ccnc2cc(Cl)ccc12 (stereo not drawn) [SR48692],Sensitivity to ionizing radiation (in words),[9],enhanced sensitivity to ionizing radiation
same,Effect on neurotensin-induced EGFR tyrosine phosphorylation (in words),[10],reduced
same,IC50,[6],160 ± 25 nM
CCCC(=O)[O-].[Na+] [Sodium butyrate],Neurotensin receptor 1 densities (in words),[11],reduced
O=S(=O)(O)c1cc(O)c(O)c(S(=O)(=O)O)c1 [Tiron],Inhibition of NTS-induced ERK tyrosine phosphorylation (in words),[1],significantly inhibited
same,Inhibition of NTS-induced HER2 tyrosine phosphorylation (in words),[2],significantly inhibited
same,Effect on neurotensin-induced EGFR tyrosine phosphorylation (in words),[10],reduced
same,Inhibition of NTS-induced EGFR tyrosine phosphorylation (in words),[3],significantly inhibited
COc1ccc2c(c1)CC[C@@H]1[C@@H]2CC[C@]2(C)[C@@H](NCCCCCCN3C(=O)C=CC3=O)CC[C@@H]12 [U73122],Effect on neurotensin-induced EGFR tyrosine phosphorylation (in words),[5],blocked

# Source: paper PMC8729037 (European journal of pharmacology, 2019)
